# Measured values: patent publication US20050059645A1, “Methods for the treatment of male and female sexual dysfunction” (priority 2003, published 2005)
# Read-outs that look alike come from different tables or passages of the source.
# What was measured:
# LH [1] = test: Plasma LH by radioimmunoassay in ovariectomized female rats; assay type: in vivo, rat; details: 0.003, 0.01 and 0.03 mg/kg i.v. daily for 5 days
# Method: (§1) After recovery from surgery, ovariectomized female rats were divided into four groups and treated once a day for five days intravenously, via a bolus injection through the tail vein, as follows: (1) control, 27% HPβCD solution; (2) 0.003 mg/kg E2-CDS dissolved in 27% HPβCD solution; (3) 0.01 mg/kg E2-CDS dissolved in 27% HPβCD solution; and (4) 0.03 mg/kg E2-CDS dissolved in 27% HPβCD solution. A minimal number of ovariectomized (8 to 12) females were used per group. Intravenous treatments either with E2-CDS or HPβCD (controls) were carried out daily for 5 days beginning 2 days prior to the first day of behavior observations, in a volume of 0.05 ml/100 g body weight.
# An experienced and active male rat was placed in the arena 5 minutes prior to the female. […] The lordosis quotient (LQ) expresses the estrogen effect on sexual receptivity and was calculated as follows: LQ=100×number of lordoses/10 mounts The observation of the sexual behavior of each female was carried out, in the case of E2-CDS, every day for 22 days; in the case of EB, investigations were carried out every day for 10 days. […] Citrated blood samples were taken by retro-orbital sinus puncture under light ether anesthesia. […] Plasma LH concentrations from individual samples were measured by double antibody radioimmunoassay kits obtained from Amersham Pharmacia Biotech, Rome, Italy. […]
# [2] = female, human, in vivo, 2.5 mg
# Excerpt: A brief evaluation of the results follows:
# One explanation for this difference might be the difference in the dissolution (and buccal residence) time of the two formulations used in these two different studies.
# postmenopausal women = test: Phase I: safety and tolerance (adverse events); details: 2.86 mg buccal, both regimens
# Method: (§2) Even more recently, in a Phase I clinical study of postmenopausal women, two different administration regimens of a 2.86 mg E2-CDS buccal delivery tablet were evaluated for safety and effects on hormone levels. The subjects were 12 healthy postmenopausal volunteers, divided into two groups of six. In Group A, women were dosed once daily for 10 days (10 doses); in Group B, women were dosed once every other day for 13 days (7 doses).
# LH [3] = details: cited from earlier work
# castrated male rats = details: cited from earlier work
# testosterone [4] = details: 1 mg/kg i.v., cited from earlier work
# [5] = tested on: ovariectomized female rats; test: Lordosis behavior test (lordosis quotient) in ovariectomized female rats; assay type: in vivo, rat
# Method: Thus, lordosis was selected as an indicator of restoration of female sexual function in ovariectomized female rats and an appropriate indicator for alleviating symptoms of female sexual dysfunction.
# Adult female Sprague Dawley rats (220-250 g) from Charles River Hungary Ltd., Godollo, Hungary, were used. Animals were kept in community cages (4 animals/cage) in a climate-controlled room (23±2° C., 50-60% humidity), with a 14 hour light, 10 hour dark cycle of artificial lighting, using reversed light/dark cycle. Food and water were available ad libitum.
# After a minimum five-day acclimatization period, animals were ovariectomized under ether anesthesia, then were left to recover for 3 weeks before testing (reconvalescence). All animals were treated in accordance with the guidelines of the European Communities Council Directive (86/609/EEC) and studies were permitted by the Institutional Animal Care Commission.
# Estradiol benzoate and progesterone were obtained from Sigma Chemical Co. Inc., Budapest, Hungary. […] E2-CDS as a 3% complex with HPβCD (E2-CDS-CD) was dissolved in distilled water and diluted with 27% HPβCD solution. E2-CDS-CD was synthesized by Alchem Laboratories Corporation, Alachua, Fla., US.
# as §1
# The behavior test was conducted in a plexiglass observation cage during the dark cycle. During behavioral observations, only a dim red light was on.
# An experienced and active male rat was placed in the arena 5 minutes prior to the female. […] The lordosis quotient (LQ) expresses the estrogen effect on sexual receptivity and was calculated as follows: LQ=100×number of lordoses/10 mounts The observation of the sexual behavior of each female was carried out, in the case of E2-CDS, every day for 22 days; in the case of EB, investigations were carried out every day for 10 days. […] Citrated blood samples were taken by retro-orbital sinus puncture under light ether anesthesia. The samples were stored at 4° C. for one hour, then centrifuged at 1000 g for 10 minutes. Plasma was separated and stored at −80° C. until assayed. Plasma LH concentrations from individual samples were measured by double antibody radioimmunoassay kits obtained from Amersham Pharmacia Biotech, Rome, Italy. […] The limit of detection was 15 pg/ml.
# Behavioral changes were analyzed using the Mann-Whitney U test (Siegel, Nonparametric Statistics for the Behavioral Sciences, New York; McGraw-Hill Book Company, Inc., 1956). The Fisher exact test was used for percentage comparisons (Zar, Biostatistical Analysis, Prentice Hall, Inc., Englewood Cliffs, N.J., 1974). Serum LH data were analyzed for each time and treatment group by analysis of variance (ANOVA) followed by Bonferroni posthoc test.
# testosterone [6] = test: Phase I repeated buccal dosing in postmenopausal women: serum testosterone; assay type: in vivo, human; details: for testosterone level exceeding baseline: 72 hours after last dose
# Method: as §2
# [7] = 0.01 mg/kg i.v. once a day for 5 days
# [8] = 0.03 mg/kg i.v. once a day for 5 days
smiles,measurement,setting,value
"CN1C=CCC(C(=O)O[C@H]2CC[C@H]3[C@@H]4CCc5cc(O)ccc5[C@H]4CC[C@]23C)=C1 [E2-CDS, 17β-[(1-methyl-1,4-dihydro-3-pyridinyl)carbonyloxy]estra-1,3,5(10)-trien-3-ol]","plasma LH levels, effect",LH [1],suppressed at all dosage levels
same,Tmax of E2,[2],2 h
same,average Cmax of E2,[2],153.4 pg/mL
same,severity of adverse events,postmenopausal women,"All AEs were mild or moderate, no serious AE was observed"
same,effects on plasma LH,LH [3]; 1280 μg single i.v. dose group,substantial and sustained decreases
same,effects on plasma LH,LH [3]; 10-40 μg single i.v. dose group,Minimal effects
same,effects on plasma LH,LH [3]; 80-640 μg single i.v. dose group,threshold effects
same,time through which LH was lowered in a clinically meaningful way,"LH [3]; single 1280 μg i.v. dose, one post-menopausal volunteer",96 h
same,masculine sexual behavior,castrated male rats; 3 mg/kg i.v. (Anderson '911 patent),"stimulated mounting behavior, increased intromission behavior and reduced both mount latency and intromission latency"
same,ejaculatory behavior,castrated male rats; 3 mg/kg single tail vein injection in DMSO (Anderson 1987),ejaculatory behavior was not restored
same,duration of improved masculine sexual behavior,castrated male rats; single i.v. dose of 3 mg/kg (Anderson '911 patent),28 days
same,decrease of serum testosterone levels,testosterone [4]; one day after treatment,99%
same,suppression of serum testosterone,testosterone [4]; through 14 days post-treatment,more than 96%
same,"lordosis quotient, effect",[5]; 0.003 mg/kg i.v. once a day for 5 days,"slightly enhanced the lordosis quotient, but these effects were not statistically significant"
same,duration of LQ increase (after day 11 not statistically significant),[5]; [7],lasted till day 15
same,"lordosis quotient LQ, effect",[5]; [7],significantly enhanced the LQ from day 5 to day 11
same,duration of LQ enhancement,[5]; [8],from day 3 to day 18
same,"lordosis quotient LQ, effect",[5]; [8],significantly enhanced
same,testosterone level exceeding baseline,testosterone [6]; Group A,14%
same,testosterone level exceeding baseline,testosterone [6]; Group B,28%
same,time to reach minimum testosterone level,"testosterone [6]; day 1, Group A",6.5 ± 11.7 h
same,mean testosterone AUC24 lower than baseline AUC24,"testosterone [6]; day 1, Group B",23.0%
same,time to reach minimum testosterone level,"testosterone [6]; day 1, Group B",7.3 ± 11.3 h
